Reference: patent US20080009418A1, “Selective Inhibitors” (Alchemia LTD., priority 2004, published 2008)

Key:
Details in all cases: compound at 10 μM
Human neurokinin (NK1) = target: T1, Human neurokinin (NK1) (Homo sapiens, UniProt P25103); test: Radioligand binding, human neurokinin NK1 membranes, filtration, [125I]-Substance P
T1 construct: purchased Perkin Elmer Biosignal
Procedure, shortened: (§1)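 Filtration binding on cloned human receptor membranes (1 Unit/well), [125I]-Substance P for NK1 and [3H]-Diprenorphine for KOP, 1 h at room temperature. Filters PEI-presoaked, washed with cold 50 mM Tris-HCl pH 7.4, counted by scintillation; percent inhibition calculated, reference ligand defining non-specific binding.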

Human μ-opioid (MOP) = target: T2, Human μ-opioid (MOP) (Homo sapiens, UniProt P35372); test: Radioligand binding, human μ-opioid (MOP) membranes, FlashPlate, [3H]-Naloxone
T2 construct: purchased Perkin Elmer Biosignal
T2 sequence (P35372 whole entry): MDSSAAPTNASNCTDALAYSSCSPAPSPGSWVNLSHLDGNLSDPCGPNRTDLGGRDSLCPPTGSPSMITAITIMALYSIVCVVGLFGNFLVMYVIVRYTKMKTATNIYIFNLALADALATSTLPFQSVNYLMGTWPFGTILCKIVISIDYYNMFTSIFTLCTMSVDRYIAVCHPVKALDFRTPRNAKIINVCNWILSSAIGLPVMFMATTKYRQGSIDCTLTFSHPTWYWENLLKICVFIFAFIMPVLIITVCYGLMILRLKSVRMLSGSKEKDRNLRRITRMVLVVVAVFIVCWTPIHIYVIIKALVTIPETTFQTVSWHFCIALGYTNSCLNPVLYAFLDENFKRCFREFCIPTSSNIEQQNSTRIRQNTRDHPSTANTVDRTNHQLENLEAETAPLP
Procedure, shortened: (§2)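 Cloned human receptor membranes were coated onto FlashPlate wells and incubated with radioligand and compound (added from a 0.5 mM DMSO daughter plate) for 1 hour at room temperature in the dark. Scintillation counting gave percent inhibition, with DMSO defining total and reference ligand defining non-specific binding.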

[1] = target: T3, Human neuropeptide Y (NPY-Y1) (Homo sapiens, UniProt P25929); test: Radioligand binding, human neuropeptide Y NPY-Y1 membranes, FlashPlate, [125I]-PYY
T3 construct: purchased Perkin Elmer Biosignal
T3 sequence (P25929 1-384): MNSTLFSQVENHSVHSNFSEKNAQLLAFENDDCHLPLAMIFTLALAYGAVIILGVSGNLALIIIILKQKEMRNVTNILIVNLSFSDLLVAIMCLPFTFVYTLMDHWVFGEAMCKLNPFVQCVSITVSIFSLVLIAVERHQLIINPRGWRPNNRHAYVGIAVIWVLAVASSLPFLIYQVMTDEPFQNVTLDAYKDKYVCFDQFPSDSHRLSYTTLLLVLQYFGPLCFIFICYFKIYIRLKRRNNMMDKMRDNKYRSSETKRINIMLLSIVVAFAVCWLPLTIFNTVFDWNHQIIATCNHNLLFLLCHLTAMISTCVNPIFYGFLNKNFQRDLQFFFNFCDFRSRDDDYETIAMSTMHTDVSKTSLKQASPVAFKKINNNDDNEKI
Procedure, shortened: as §2

Human Melanocortin (MC4) = target: T4, Human Melanocortin (MC4) (Homo sapiens, UniProt P32245); test: Radioligand binding, human melanocortin MC4 membranes, FlashPlate, [125I]-NDP-αMSH
T4 construct: purchased Perkin Elmer Biosignal
T4 sequence (P32245 whole entry): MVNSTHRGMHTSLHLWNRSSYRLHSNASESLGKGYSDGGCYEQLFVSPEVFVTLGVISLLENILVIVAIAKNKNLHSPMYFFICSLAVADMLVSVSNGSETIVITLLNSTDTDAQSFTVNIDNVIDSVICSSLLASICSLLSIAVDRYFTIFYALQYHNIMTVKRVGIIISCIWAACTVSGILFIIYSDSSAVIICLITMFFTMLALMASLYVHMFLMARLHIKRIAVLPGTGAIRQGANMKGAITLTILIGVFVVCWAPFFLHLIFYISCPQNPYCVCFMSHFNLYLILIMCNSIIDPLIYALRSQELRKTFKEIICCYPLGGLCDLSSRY
Procedure, shortened: as §2

Human Melanocortin (MC3) = target: T5, Human Melanocortin (MC3) (Homo sapiens, UniProt P41968); test: Radioligand binding, human melanocortin MC3 membranes, FlashPlate, [125I]-NDP-αMSH
T5 construct: purchased Perkin Elmer Biosignal
T5 sequence (P41968 whole entry): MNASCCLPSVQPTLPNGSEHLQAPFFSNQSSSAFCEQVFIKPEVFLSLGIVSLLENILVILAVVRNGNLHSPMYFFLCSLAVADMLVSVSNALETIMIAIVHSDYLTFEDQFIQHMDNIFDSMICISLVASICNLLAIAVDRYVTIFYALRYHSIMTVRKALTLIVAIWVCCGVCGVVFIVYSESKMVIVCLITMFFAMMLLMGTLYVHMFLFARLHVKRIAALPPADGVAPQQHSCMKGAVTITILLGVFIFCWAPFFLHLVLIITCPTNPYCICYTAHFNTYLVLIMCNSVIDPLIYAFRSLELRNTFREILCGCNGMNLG
Procedure, shortened: as §2

Mouse urotensin (mUR2) = target: T6, Mouse urotensin (mUR2) (Mus musculus, UniProt Q8VIH9); test: Radioligand binding, mouse urotensin mUR2 membranes, FlashPlate, [125I]-Urotensin II
T6 construct: purchased Perkin Elmer Biosignal
T6 sequence (Q8VIH9 1-385): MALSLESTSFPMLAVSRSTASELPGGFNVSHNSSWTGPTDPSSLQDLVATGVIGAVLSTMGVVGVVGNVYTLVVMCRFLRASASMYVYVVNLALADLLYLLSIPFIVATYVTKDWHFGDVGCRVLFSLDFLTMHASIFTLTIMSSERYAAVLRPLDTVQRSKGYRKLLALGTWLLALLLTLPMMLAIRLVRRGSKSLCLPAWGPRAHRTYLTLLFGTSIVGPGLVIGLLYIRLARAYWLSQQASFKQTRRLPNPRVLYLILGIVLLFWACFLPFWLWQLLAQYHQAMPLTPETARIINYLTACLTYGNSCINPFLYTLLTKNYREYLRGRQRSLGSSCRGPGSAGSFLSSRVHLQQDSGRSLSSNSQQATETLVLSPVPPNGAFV
Procedure, shortened: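 Cloned mouse urotensin (mUR2) receptor membranes from Perkin Elmer Biosignal were immobilized in FlashPlate microplates using a proprietary coating. Each well got 19.5 μl buffer, then 0.5 μl of DMSO, reference ligand, or compound. Adding 5 μl of [125I]-Urotensin II, diluted to 5× final concentration in binding buffer, started binding. Plates were sealed with TopSeal-A and incubated 1 hour at room temperature in the dark. Wells were counted for 30 seconds each on a TopCount after a 60-second delay, and percentage inhibition was calculated.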

Human δ-opioid (DOP) = target: T7, Human δ-opioid (DOP) (Homo sapiens, UniProt P41143); test: Radioligand binding, human δ-opioid (DOP) membranes, FlashPlate, [3H]-Bremazocine
T7 construct: purchased Perkin Elmer Biosignal
T7 sequence (P41143 whole entry): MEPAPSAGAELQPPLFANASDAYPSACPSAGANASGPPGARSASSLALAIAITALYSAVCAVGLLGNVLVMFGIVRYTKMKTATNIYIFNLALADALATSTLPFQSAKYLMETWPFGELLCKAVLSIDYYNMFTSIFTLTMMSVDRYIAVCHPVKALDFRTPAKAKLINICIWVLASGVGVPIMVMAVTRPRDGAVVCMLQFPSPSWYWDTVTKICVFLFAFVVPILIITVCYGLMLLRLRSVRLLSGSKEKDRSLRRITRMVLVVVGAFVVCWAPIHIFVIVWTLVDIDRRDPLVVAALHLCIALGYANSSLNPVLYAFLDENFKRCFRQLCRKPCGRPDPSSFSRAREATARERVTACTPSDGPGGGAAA
Procedure, shortened: as §2

Human melanocortin (MC5) = target: T8, Human melanocortin (MC5) (Homo sapiens, UniProt P33032); test: Radioligand binding, human melanocortin MC5 membranes, FlashPlate, [125I]-NDP-αMSH
T8 construct: purchased Perkin Elmer Biosignal
T8 sequence (P33032 whole entry): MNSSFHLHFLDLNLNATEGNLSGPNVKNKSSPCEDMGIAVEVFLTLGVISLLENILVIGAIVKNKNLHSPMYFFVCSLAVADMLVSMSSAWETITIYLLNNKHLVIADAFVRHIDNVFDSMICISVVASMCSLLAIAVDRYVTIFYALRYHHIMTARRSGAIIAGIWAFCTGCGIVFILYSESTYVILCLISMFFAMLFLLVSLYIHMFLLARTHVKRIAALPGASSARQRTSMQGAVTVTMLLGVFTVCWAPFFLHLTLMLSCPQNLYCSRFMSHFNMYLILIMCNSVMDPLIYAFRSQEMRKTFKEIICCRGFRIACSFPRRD
Procedure, shortened: as §2

[2] = target: T9, Human melanin-concentrating hormone (MCH1) (Homo sapiens, UniProt Q99705); test: Radioligand binding, human melanin-concentrating hormone MCH1 membranes, FlashPlate, [125I]-S36057
T9 construct: purchased Perkin Elmer Biosignal
T9 sequence (Q99705 whole entry): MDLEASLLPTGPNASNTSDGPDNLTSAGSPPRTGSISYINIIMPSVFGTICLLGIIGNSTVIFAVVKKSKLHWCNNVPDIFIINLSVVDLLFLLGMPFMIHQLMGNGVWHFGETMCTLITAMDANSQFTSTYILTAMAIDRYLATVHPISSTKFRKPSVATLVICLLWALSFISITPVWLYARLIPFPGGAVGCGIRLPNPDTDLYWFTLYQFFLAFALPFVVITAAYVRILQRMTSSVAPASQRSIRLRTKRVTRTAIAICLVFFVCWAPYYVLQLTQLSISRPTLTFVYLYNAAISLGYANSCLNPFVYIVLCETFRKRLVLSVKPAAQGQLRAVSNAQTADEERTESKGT
Procedure, shortened: as §2

Human opioid (ORL1) = target: T10, Human opioid (ORL1) (Homo sapiens, UniProt P41146); test: Radioligand binding, human opioid ORL1 membranes, FlashPlate, [125I]-Nociceptin
T10 construct: purchased Perkin Elmer Biosignal
T10 sequence (P41146 whole entry): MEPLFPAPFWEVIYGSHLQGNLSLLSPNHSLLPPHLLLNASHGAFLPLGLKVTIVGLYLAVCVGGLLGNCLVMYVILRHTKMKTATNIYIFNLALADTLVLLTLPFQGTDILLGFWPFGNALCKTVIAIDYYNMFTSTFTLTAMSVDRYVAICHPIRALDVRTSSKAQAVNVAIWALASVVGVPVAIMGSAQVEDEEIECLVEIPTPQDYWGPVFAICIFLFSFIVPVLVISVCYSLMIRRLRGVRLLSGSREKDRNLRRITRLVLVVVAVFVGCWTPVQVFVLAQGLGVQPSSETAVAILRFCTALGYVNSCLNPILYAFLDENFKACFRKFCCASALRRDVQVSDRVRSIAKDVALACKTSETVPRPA
Procedure, shortened: as §2

Human κ-Opioid (KOP) = target: T11, Human κ-Opioid (KOP) (Homo sapiens, UniProt P41145); test: Radioligand binding, human κ-opioid (KOP) membranes, filtration, [3H]-Diprenorphine
T11 construct: purchased Perkin Elmer Biosignal
T11 sequence (P41145 whole entry): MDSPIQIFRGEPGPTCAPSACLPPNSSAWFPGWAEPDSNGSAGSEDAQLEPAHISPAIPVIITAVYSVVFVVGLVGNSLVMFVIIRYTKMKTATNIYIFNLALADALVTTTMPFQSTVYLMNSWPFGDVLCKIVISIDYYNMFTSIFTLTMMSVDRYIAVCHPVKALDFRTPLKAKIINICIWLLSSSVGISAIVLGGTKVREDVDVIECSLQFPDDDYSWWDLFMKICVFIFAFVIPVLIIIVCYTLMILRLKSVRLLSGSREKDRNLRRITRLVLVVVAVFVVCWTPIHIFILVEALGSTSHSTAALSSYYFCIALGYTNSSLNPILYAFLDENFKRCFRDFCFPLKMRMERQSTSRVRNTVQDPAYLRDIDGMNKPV
Procedure, shortened: as §1

T1 sequence (P25103 whole entry): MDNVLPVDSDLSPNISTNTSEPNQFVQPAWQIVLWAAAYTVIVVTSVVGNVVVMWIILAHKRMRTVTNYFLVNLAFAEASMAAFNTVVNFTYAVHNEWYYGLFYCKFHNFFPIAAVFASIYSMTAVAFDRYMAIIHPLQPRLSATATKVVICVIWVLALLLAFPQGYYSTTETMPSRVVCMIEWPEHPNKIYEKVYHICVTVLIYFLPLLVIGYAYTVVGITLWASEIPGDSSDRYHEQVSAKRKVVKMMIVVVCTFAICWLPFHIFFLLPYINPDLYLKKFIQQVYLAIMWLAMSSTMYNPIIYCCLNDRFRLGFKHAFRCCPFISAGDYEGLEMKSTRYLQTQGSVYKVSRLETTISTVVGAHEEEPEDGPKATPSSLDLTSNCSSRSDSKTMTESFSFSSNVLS

COCC1OC(OCc2ccccc2)C(NC(=O)CCNC(=N)N)C(OCc2ccccc2)C1O (stereo not shown) [compound 173]
A8 radioligand binding, percentage inhibition (Human neurokinin (NK1); [125I]-Substance P): + (“+” indicates greater than 50% inhibition at 10 μM) | A7 radioligand binding, percentage inhibition (Human μ-opioid (MOP); [3H]-Naloxone): − (“−” indicates less than 50% inhibition at 10 μM) | A9 radioligand binding, percentage inhibition ([1]; [125I]-PYY): − (“−” indicates less than 50% inhibition at 10 μM) | A4 radioligand binding, percentage inhibition (Human Melanocortin (MC4); [125I]-NDP-αMSH): − (“−” indicates less than 50% inhibition at 10 μM) | A3 radioligand binding, percentage inhibition (Human Melanocortin (MC3); [125I]-NDP-αMSH): − (“−” indicates less than 50% inhibition at 10 μM) | A11 radioligand binding, percentage inhibition (Mouse urotensin (mUR2); [125I]-Urotensin II): − (“−” indicates less than 50% inhibition at 10 μM) | A1 radioligand binding, percentage inhibition (Human δ-opioid (DOP); [3H]-Bremazocine): − (“−” indicates less than 50% inhibition at 10 μM) | A5 radioligand binding, percentage inhibition (Human melanocortin (MC5); [125I]-NDP-αMSH): − (“−” indicates less than 50% inhibition at 10 μM) | A6 radioligand binding, percentage inhibition ([2]; [125I]-S36057): − (“−” indicates less than 50% inhibition at 10 μM) | A10 radioligand binding, percentage inhibition (Human opioid (ORL1); [125I]-Nociceptin): − (“−” indicates less than 50% inhibition at 10 μM) | A2 radioligand binding, percentage inhibition (Human κ-Opioid (KOP); [3H]-Diprenorphine): − (“−” indicates less than 50% inhibition at 10 μM)

N=C(N)NCC(=O)NC1C(OCc2ccc(-c3ccccc3)cc2)OC(COCc2ccc(Cl)cc2)C(O)C1OCc1ccc2ccccc2c1 (stereo not shown) [compound 404]
A8: inhibition of radioligand binding (Human neurokinin (NK1); [125I]-Substance P, human NK1 membranes): + (“+” indicates greater than 50% inhibition at 10 μM) | A7: inhibition of radioligand binding (Human μ-opioid (MOP); [3H]-Naloxone, human MOP membranes): − (“−” indicates less than 50% inhibition at 10 μM) | A9: inhibition of radioligand binding ([1]; [125I]-PYY, human NPY-Y1 membranes): − (“−” indicates less than 50% inhibition at 10 μM) | A4: inhibition of radioligand binding (Human Melanocortin (MC4); [125I]-NDP-αMSH, human MC4 membranes): + (“+” indicates greater than 50% inhibition at 10 μM) | A3: inhibition of radioligand binding (Human Melanocortin (MC3); [125I]-NDP-αMSH, human MC3 membranes): + (“+” indicates greater than 50% inhibition at 10 μM) | A11: inhibition of radioligand binding (Mouse urotensin (mUR2); [125I]-Urotensin II, mouse mUR2 membranes): − (“−” indicates less than 50% inhibition at 10 μM) | A1: inhibition of radioligand binding (Human δ-opioid (DOP); [3H]-Bremazocine, human DOP membranes): − (“−” indicates less than 50% inhibition at 10 μM) | A5: inhibition of radioligand binding (Human melanocortin (MC5); [125I]-NDP-αMSH, human MC5 membranes): + (“+” indicates greater than 50% inhibition at 10 μM) | A6: inhibition of radioligand binding ([2]; [125I]-S36057, human MCH1 membranes): − (“−” indicates less than 50% inhibition at 10 μM) | A10: inhibition of radioligand binding (Human opioid (ORL1); [125I]-Nociceptin, human ORL1 membranes): + (“+” indicates greater than 50% inhibition at 10 μM) | A2: inhibition of radioligand binding (Human κ-Opioid (KOP); [3H]-Diprenorphine, human KOP membranes): − (“−” indicates less than 50% inhibition at 10 μM)

CO[C@H]1[C@H](O)[C@@H](COCc2ccc(-c3ccccc3)cc2)OC(OCc2ccc3ccccc3c2)[C@@H]1NC(=O)CCCN (stereo partly shown) [compound 68]
A8 radioligand binding inhibition (Human neurokinin (NK1); human neurokinin NK1 membranes): + (“+” indicates greater than 50% inhibition at 10 μM) | A7 radioligand binding inhibition (Human μ-opioid (MOP); human μ-opioid (MOP) membranes): − (“−” indicates less than 50% inhibition at 10 μM) | A9 radioligand binding inhibition ([1]; human NPY-Y1 membranes): − (“−” indicates less than 50% inhibition at 10 μM) | A4 radioligand binding inhibition (Human Melanocortin (MC4); human melanocortin MC4 membranes): + (“+” indicates greater than 50% inhibition at 10 μM) | A3 radioligand binding inhibition (Human Melanocortin (MC3); human melanocortin MC3 membranes): + (“+” indicates greater than 50% inhibition at 10 μM) | A11 radioligand binding inhibition (Mouse urotensin (mUR2); mouse urotensin mUR2 membranes): − (“−” indicates less than 50% inhibition at 10 μM) | A1 radioligand binding inhibition (Human δ-opioid (DOP); human δ-opioid (DOP) membranes): − (“−” indicates less than 50% inhibition at 10 μM) | A5 radioligand binding inhibition (Human melanocortin (MC5); human melanocortin MC5 membranes): + (“+” indicates greater than 50% inhibition at 10 μM) | A6 radioligand binding inhibition ([2]; human MCH1 membranes): + (“+” indicates greater than 50% inhibition at 10 μM) | A10 radioligand binding inhibition (Human opioid (ORL1); human ORL1 membranes): − (“−” indicates less than 50% inhibition at 10 μM) | A2 radioligand binding inhibition (Human κ-Opioid (KOP); human κ-opioid (KOP) membranes): − (“−” indicates less than 50% inhibition at 10 μM)

NCCCC(=O)NC1C(OCc2ccccc2)OC(COCc2ccc(Cl)cc2)C(O)C1OCc1ccc(Cl)cc1 (stereo not shown) [compound 374]
A8: inhibition of radioligand binding, human neurokinin (NK1) (Human neurokinin (NK1); [125I]-Substance P): + (“+” indicates greater than 50% inhibition at 10 μM) | A7: inhibition of radioligand binding, human μ-opioid (MOP) (Human μ-opioid (MOP); [3H]-Naloxone): − (“−” indicates less than 50% inhibition at 10 μM) | A9: inhibition of radioligand binding, human neuropeptide Y (NPY-Y1) ([1]; [125I]-PYY): − (“−” indicates less than 50% inhibition at 10 μM) | A4: inhibition of radioligand binding, human melanocortin (MC4) (Human Melanocortin (MC4); [125I]-NDP-αMSH): + (“+” indicates greater than 50% inhibition at 10 μM) | A3: inhibition of radioligand binding, human melanocortin (MC3) (Human Melanocortin (MC3); [125I]-NDP-αMSH): − (“−” indicates less than 50% inhibition at 10 μM) | A11: inhibition of radioligand binding, mouse urotensin (mUR2) (Mouse urotensin (mUR2); [125I]-Urotensin II): − (“−” indicates less than 50% inhibition at 10 μM) | A1: inhibition of radioligand binding, human δ-opioid (DOP) (Human δ-opioid (DOP); [3H]-Bremazocine): − (“−” indicates less than 50% inhibition at 10 μM) | A5: inhibition of radioligand binding, human melanocortin (MC5) (Human melanocortin (MC5); [125I]-NDP-αMSH): + (“+” indicates greater than 50% inhibition at 10 μM) | A6: inhibition of radioligand binding, human melanin-concentrating hormone (MCH1) ([2]; [125I]-S36057): − (“−” indicates less than 50% inhibition at 10 μM) | A10: inhibition of radioligand binding, human opioid (ORL1) (Human opioid (ORL1); [125I]-Nociceptin): − (“−” indicates less than 50% inhibition at 10 μM) | A2: inhibition of radioligand binding, human κ-opioid (KOP) (Human κ-Opioid (KOP); [3H]-Diprenorphine): − (“−” indicates less than 50% inhibition at 10 μM)

NCCC(=O)NC1C(OCc2ccc(Cl)cc2)OC(COCc2ccccc2)C(O)C1OCc1ccccc1 (single isomer, unassigned) [compound 485]
A8: inhibition of radioligand binding, human neurokinin (NK1) (Human neurokinin (NK1); [125I]-Substance P): + (“+” indicates greater than 50% inhibition at 10 μM) | A7: inhibition of radioligand binding, human μ-opioid (MOP) (Human μ-opioid (MOP); [3H]-Naloxone): − (“−” indicates less than 50% inhibition at 10 μM) | A9: inhibition of radioligand binding, human neuropeptide Y (NPY-Y1) ([1]; [125I]-PYY): − (“−” indicates less than 50% inhibition at 10 μM) | A4: inhibition of radioligand binding, human melanocortin (MC4) (Human Melanocortin (MC4); [125I]-NDP-αMSH): − (“−” indicates less than 50% inhibition at 10 μM) | A3: inhibition of radioligand binding, human melanocortin (MC3) (Human Melanocortin (MC3); [125I]-NDP-αMSH): − (“−” indicates less than 50% inhibition at 10 μM) | A11: inhibition of radioligand binding, mouse urotensin (mUR2) (Mouse urotensin (mUR2); [125I]-Urotensin II): − (“−” indicates less than 50% inhibition at 10 μM) | A1: inhibition of radioligand binding, human δ-opioid (DOP) (Human δ-opioid (DOP); [3H]-Bremazocine): − (“−” indicates less than 50% inhibition at 10 μM) | A5: inhibition of radioligand binding, human melanocortin (MC5) (Human melanocortin (MC5); [125I]-NDP-αMSH): − (“−” indicates less than 50% inhibition at 10 μM) | A6: inhibition of radioligand binding, human melanin-concentrating hormone (MCH1) ([2]; [125I]-S36057): − (“−” indicates less than 50% inhibition at 10 μM) | A10: inhibition of radioligand binding, human opioid (ORL1) (Human opioid (ORL1); [125I]-Nociceptin): − (“−” indicates less than 50% inhibition at 10 μM) | A2: inhibition of radioligand binding, human κ-opioid (KOP) (Human κ-Opioid (KOP); [3H]-Diprenorphine): − (“−” indicates less than 50% inhibition at 10 μM)
